Values after ≈ are worked out from the molar mass of the structure shown.
Tested on: not listed separately
Assay: Lipophilicity Log D at pH 7.4
Conditions: buffer

Compound	logD
CC(=O)NC1CN(c2ccc(Nc3ncc(F)c(-c4cnc(C)n4C(C)C)n3)cc2)C1	2.8
Cc1ncc(-c2nc(Nc3ccc(N4CCN(C(=O)CO)CC4)cc3)ncc2F)n1C(C)C	2.2
Cc1ncc(-c2ccnc(Nc3ccc(N4CCN(S(C)(=O)=O)CC4)cc3)n2)n1C(C)C	2.6
Cc1ncc(-c2ccnc(Nc3ccc(N4CCN(S(=O)(=O)CCN(C)C)CC4)cc3)n2)n1C(C)C	2.5
Cc1ncc(-c2ccnc(Nc3ccc(N4CCN(C(=O)CN(C)C)CC4)cc3)n2)n1C(C)C	3.3
Cc1ncc(-c2ccnc(Nc3ccc(N4CCOCC4)cc3)n2)n1C(C)C	2.9
Cc1ncc(-c2nc(Nc3ccc(N4CCOCC4)cc3)ncc2F)n1C(C)C	3

Molecular target: Voltage-gated inwardly rectifying potassium channel KCNH2 (Homo sapiens, UniProt Q12809)
Assay: not given
Conditions: not given

Chain of Voltage-gated inwardly rectifying potassium channel KCNH2 (Q12809 whole entry): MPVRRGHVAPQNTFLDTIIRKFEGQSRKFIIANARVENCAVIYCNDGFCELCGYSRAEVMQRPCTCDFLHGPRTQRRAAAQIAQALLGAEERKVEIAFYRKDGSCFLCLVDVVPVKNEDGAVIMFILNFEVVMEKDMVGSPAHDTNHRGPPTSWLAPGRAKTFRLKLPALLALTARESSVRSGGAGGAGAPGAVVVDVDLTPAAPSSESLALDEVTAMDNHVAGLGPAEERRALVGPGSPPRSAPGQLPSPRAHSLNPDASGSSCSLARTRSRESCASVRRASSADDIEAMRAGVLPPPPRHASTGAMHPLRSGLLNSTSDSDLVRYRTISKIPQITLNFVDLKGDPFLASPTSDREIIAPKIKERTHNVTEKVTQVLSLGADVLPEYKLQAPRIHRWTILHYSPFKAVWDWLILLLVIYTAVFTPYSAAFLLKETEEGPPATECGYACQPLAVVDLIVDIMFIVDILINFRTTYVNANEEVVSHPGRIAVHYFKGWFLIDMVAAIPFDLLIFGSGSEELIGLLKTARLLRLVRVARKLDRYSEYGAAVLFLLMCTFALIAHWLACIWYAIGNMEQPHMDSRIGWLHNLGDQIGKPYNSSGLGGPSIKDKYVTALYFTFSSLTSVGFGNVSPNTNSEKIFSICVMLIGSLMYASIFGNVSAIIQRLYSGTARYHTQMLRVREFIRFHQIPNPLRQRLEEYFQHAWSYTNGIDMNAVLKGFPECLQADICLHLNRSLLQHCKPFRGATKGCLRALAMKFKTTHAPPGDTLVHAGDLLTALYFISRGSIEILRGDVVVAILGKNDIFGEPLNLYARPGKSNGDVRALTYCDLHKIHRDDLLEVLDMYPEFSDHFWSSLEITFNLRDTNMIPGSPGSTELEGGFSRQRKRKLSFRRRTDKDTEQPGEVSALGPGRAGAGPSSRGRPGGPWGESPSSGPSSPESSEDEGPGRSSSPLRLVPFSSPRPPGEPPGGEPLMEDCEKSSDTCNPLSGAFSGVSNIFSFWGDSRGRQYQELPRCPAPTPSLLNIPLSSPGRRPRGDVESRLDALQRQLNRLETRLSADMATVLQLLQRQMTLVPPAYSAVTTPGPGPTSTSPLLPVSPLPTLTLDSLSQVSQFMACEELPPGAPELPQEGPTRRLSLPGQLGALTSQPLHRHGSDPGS

Compound	IC50
Cc1ncc(-c2ccnc(Nc3ccc(N4CCN(S(C)(=O)=O)CC4)cc3)n2)n1C(C)C	5500 nM
Cc1ncc(-c2ccnc(Nc3ccc(N4CCN(S(=O)(=O)CCN(C)C)CC4)cc3)n2)n1C(C)C	18000 nM
Cc1ncc(-c2ccnc(Nc3ccc(N4CCN(C(=O)CN(C)C)CC4)cc3)n2)n1C(C)C	> 32000 nM
Cc1ncc(-c2nc(Nc3ccc(N4CCOCC4)cc3)ncc2F)n1C(C)C	11000 nM
Cc1ncc(-c2ccnc(Nc3ccc(N4CCN(C(=O)[C@H](C)O)CC4)cc3)n2)n1C(C)C	> 24000 nM

Tested on: not listed separately
Assay: Oral bioavailability in rat
Type: ADME, organism-based
Conditions: in vivo

Compound	bioavailability
Cc1ncc(-c2nc(Nc3ccc(N4CCN(C(=O)CO)CC4)cc3)ncc2F)n1C(C)C	67%
Cc1ncc(-c2ccnc(Nc3ccc(N4CCN(C(=O)CO)CC4)cc3)n2)n1C(C)C	59%
Cc1ncc(-c2nc(Nc3ccc(N4CCOCC4)cc3)ncc2F)n1C(C)C	34%

Tested on: not listed separately
Assay: Aqueous solubility at pH 7.4
Conditions: buffer

Compound	solubility
CC(=O)NC1CN(c2ccc(Nc3ncc(F)c(-c4cnc(C)n4C(C)C)n3)cc2)C1	120 µM (≈ 50.8 µg/mL)
Cc1ncc(-c2nc(Nc3ccc(N4CCN(C(=O)CO)CC4)cc3)ncc2F)n1C(C)C	160 µM (≈ 72.6 µg/mL)
Cc1ncc(-c2ccnc(Nc3ccc(N4CCN(S(C)(=O)=O)CC4)cc3)n2)n1C(C)C	9 µM (≈ 4.1 µg/mL)
Cc1ncc(-c2ccnc(Nc3ccc(N4CCN(C(=O)CN(C)C)CC4)cc3)n2)n1C(C)C	> 3400 µM
CCN(CC)CC(=O)N1CCN(c2ccc(Nc3nccc(-c4cnc(C)n4C(C)C)n3)cc2)CC1	> 3700 µM
Cc1ncc(-c2ccnc(Nc3ccc(N4CCOCC4)cc3)n2)n1C(C)C	56 µM (≈ 21.2 µg/mL)
Cc1ncc(-c2nc(Nc3ccc(N4CCOCC4)cc3)ncc2F)n1C(C)C	120 µM (≈ 47.6 µg/mL)

Tested on: not listed separately
Assay: Oral bioavailability in dog
Type: ADME, organism-based, Canis lupus familiaris
Conditions: in vivo

Compound	bioavailability
Cc1ncc(-c2nc(Nc3ccc(N4CCN(C(=O)CO)CC4)cc3)ncc2F)n1C(C)C	31%
Cc1ncc(-c2ccnc(Nc3ccc(N4CCN(C(=O)CO)CC4)cc3)n2)n1C(C)C	79%
Cc1ncc(-c2nc(Nc3ccc(N4CCOCC4)cc3)ncc2F)n1C(C)C	3%

Tested on: not listed separately
Assay: Plasma clearance in rat
Type: ADME, organism-based
Conditions: not given

Compound	clearance
Cc1ncc(-c2nc(Nc3ccc(N4CCN(C(=O)CO)CC4)cc3)ncc2F)n1C(C)C	16 mL/min/kg
Cc1ncc(-c2ccnc(Nc3ccc(N4CCN(C(=O)CO)CC4)cc3)n2)n1C(C)C	15 mL/min/kg
Cc1ncc(-c2nc(Nc3ccc(N4CCOCC4)cc3)ncc2F)n1C(C)C	26 mL/min/kg

Tested on: not listed separately
Assay: Protein binding in rat plasma assessed as unbound fraction
Type: ADME, cell-free
Conditions: not given

Compound	fraction unbound
CC(=O)NC1CN(c2ccc(Nc3ncc(F)c(-c4cnc(C)n4C(C)C)n3)cc2)C1	0.05
Cc1ncc(-c2ccnc(Nc3ccc(N4CCN(S(C)(=O)=O)CC4)cc3)n2)n1C(C)C	0.08
Cc1ncc(-c2ccnc(Nc3ccc(N4CCN(C(=O)CO)CC4)cc3)n2)n1C(C)C	0.22
Cc1ncc(-c2ccnc(Nc3ccc(N4CCN(C(=O)CN(C)C)CC4)cc3)n2)n1C(C)C	0.4

Tested on: not listed separately
Assay: AUC in rat at 2 mg/kg, po
Type: ADME, organism-based
Parameters: dose 2 mg/kg, route oral
Conditions: plasma

Compound	AUC
Cc1ncc(-c2nc(Nc3ccc(N4CCN(C(=O)CO)CC4)cc3)ncc2F)n1C(C)C	0.17 µM·h
Cc1ncc(-c2ccnc(Nc3ccc(N4CCN(S(C)(=O)=O)CC4)cc3)n2)n1C(C)C	0.08 µM·h
Cc1ncc(-c2ccnc(Nc3ccc(N4CCN(C(=O)CO)CC4)cc3)n2)n1C(C)C	0.4 µM·h
Cc1ncc(-c2ccnc(Nc3ccc(N4CCOCC4)cc3)n2)n1C(C)C	0.16 µM·h
Cc1ncc(-c2nc(Nc3ccc(N4CCOCC4)cc3)ncc2F)n1C(C)C	0.19 µM·h
Cc1ncc(-c2ccnc(Nc3ccc(N4CCN(C(=O)[C@H](C)O)CC4)cc3)n2)n1C(C)C	0.16 µM·h

Tested on: MCF7
Assay: cells
Conditions: Homo sapiens, MCF7, 48 h
Description: Antiproliferative activity against human MCF7 cells after 48 hrs

Compound	IC50
Cc1ncc(-c2ccnc(Nc3ccc(C#N)cc3)n2)n1C(C)C	70 nM
Cc1ncc(-c2ccnc(Nc3ccc(N(C)C)cc3)n2)n1C(C)C	68 nM
CC(=O)N[C@@H]1CCN(c2ccc(Nc3ncc(F)c(-c4cnc(C)n4C(C)C)n3)cc2)C1	140 nM
Cc1ncc(-c2nc(Nc3ccc(N4CCN(C(=O)CO)CC4)cc3)ncc2F)n1C(C)C	75 nM
Cc1ncc(-c2ccnc(Nc3ccc(N4CCN(S(C)(=O)=O)CC4)cc3)n2)n1C(C)C	72 nM
CC(=O)N1CCN(c2ccc(Nc3nccc(-c4cnc(C)n4C(C)C)n3)cc2)CC1	145 nM
Cc1ncc(-c2ccnc(Nc3ccc(N4CCN(S(=O)(=O)CCN(C)C)CC4)cc3)n2)n1C(C)C	< 39 nM
Cc1ncc(-c2ccnc(Nc3ccc(N4CCN(C(=O)CN(C)C)CC4)cc3)n2)n1C(C)C	< 27 nM
CCN(CC)CC(=O)N1CCN(c2ccc(Nc3nccc(-c4cnc(C)n4C(C)C)n3)cc2)CC1	< 22 nM
Cc1ncc(-c2ccnc(Nc3ccc(F)cc3)n2)n1C(C)C	100 nM
Cc1ncc(-c2ccnc(Nc3ccc(Cl)cc3)n2)n1C(C)C	72 nM
COCCNS(=O)(=O)c1ccc(Nc2nccc(-c3cnc(C)n3C(C)C)n2)cc1	45 nM
COc1ccc(Nc2nccc(-c3cnc(C)n3C(C)C)n2)cc1	72 nM
COCCS(=O)(=O)N1CCN(c2ccc(Nc3nccc(-c4cnc(C)n4C(C)C)n3)cc2)CC1	93 nM
Cc1ncc(-c2ccnc(Nc3ccc(N4CCOCC4)cc3)n2)n1C(C)C	290 nM
Cc1ncc(-c2nc(Nc3ccc(N4CCOCC4)cc3)ncc2F)n1C(C)C	110 nM
Cc1ncc(-c2ccnc(Nc3ccc(N4CCN(C(=O)[C@H](C)O)CC4)cc3)n2)n1C(C)C	220 nM

Tested on: not listed separately
Assay: Volume of distribution at steady state in rat
Type: ADME, organism-based
Conditions: in vivo, read-out: Vdss

Compound	Vd
Cc1ncc(-c2nc(Nc3ccc(N4CCN(C(=O)CO)CC4)cc3)ncc2F)n1C(C)C	1 L/kg
Cc1ncc(-c2ccnc(Nc3ccc(N4CCN(C(=O)CO)CC4)cc3)n2)n1C(C)C	2.5 L/kg
Cc1ncc(-c2nc(Nc3ccc(N4CCOCC4)cc3)ncc2F)n1C(C)C	1.3 L/kg

Tested on: SW-620
Assay: animal or person
Conditions: Mus musculus, SW-620, po, 672 h, read-out: INH
Description: Antitumor activity against human SW620 cells xenografted nude mouse assessed as tumor growth inhibition at 12.5 mg/kg, po once daily for 28 days

Compound	inhibition in vivo at 12.5 mg/kg
Cc1ncc(-c2nc(Nc3ccc(N4CCN(C(=O)CO)CC4)cc3)ncc2F)n1C(C)C	89%

Molecular target: Cyclin-dependent kinase 2 (Homo sapiens, UniProt P24941)
Assay: Inhibition of CDK2/Cyclin E
Conditions: not given

Compound	IC50
Cc1ncc(-c2ccnc(Nc3ccc(C#N)cc3)n2)n1C(C)C	< 3 nM
Cc1ncc(-c2nc(Nc3ccc(N4CCC[C@H]4C(=O)N(C)C)cc3)ncc2F)n1C(C)C	46 nM
Cc1ncc(-c2ccnc(Nc3ccc(N(C)C)cc3)n2)n1C(C)C	24 nM
CC(=O)NC1CN(c2ccc(Nc3ncc(F)c(-c4cnc(C)n4C(C)C)n3)cc2)C1	0.5 nM
CC(=O)N[C@@H]1CCN(c2ccc(Nc3ncc(F)c(-c4cnc(C)n4C(C)C)n3)cc2)C1	> 0.3 nM
Cc1ncc(-c2nc(Nc3ccc(N4CCN(C(=O)CO)CC4)cc3)ncc2F)n1C(C)C	6 nM
Cc1ncc(-c2ccnc(Nc3ccc(N4CCN(S(C)(=O)=O)CC4)cc3)n2)n1C(C)C	< 3 nM
CC(=O)N1CCN(c2ccc(Nc3nccc(-c4cnc(C)n4C(C)C)n3)cc2)CC1	< 3 nM
Cc1ncc(-c2ccnc(Nc3ccc(N4CCN(S(=O)(=O)CCN(C)C)CC4)cc3)n2)n1C(C)C	3 nM
Cc1ncc(-c2ccnc(Nc3ccc(N4CCN(C(=O)CN(C)C)CC4)cc3)n2)n1C(C)C	16 nM
Cc1ncc(-c2ccnc(Nc3ccc(F)cc3)n2)n1C(C)C	3 nM
Cc1ncc(-c2ccnc(Nc3ccc(Cl)cc3)n2)n1C(C)C	< 3 nM
COc1ccc(Nc2nccc(-c3cnc(C)n3C(C)C)n2)cc1	8 nM
COCCS(=O)(=O)N1CCN(c2ccc(Nc3nccc(-c4cnc(C)n4C(C)C)n3)cc2)CC1	< 3 nM
Cc1ncc(-c2ccnc(Nc3ccc(N4CCOCC4)cc3)n2)n1C(C)C	9 nM
Cc1ncc(-c2nc(Nc3ccc(N4CCOCC4)cc3)ncc2F)n1C(C)C	8 nM
Cc1ncc(-c2ccnc(Nc3ccc(N4CCN(C(=O)[C@H](C)O)CC4)cc3)n2)n1C(C)C	17 nM

Tested on: not listed separately
Assay: Plasma clearance in dog
Type: ADME, organism-based, Canis lupus familiaris
Conditions: not given

Compound	clearance
Cc1ncc(-c2nc(Nc3ccc(N4CCN(C(=O)CO)CC4)cc3)ncc2F)n1C(C)C	24 mL/min/kg
Cc1ncc(-c2ccnc(Nc3ccc(N4CCN(C(=O)CO)CC4)cc3)n2)n1C(C)C	19 mL/min/kg
Cc1ncc(-c2nc(Nc3ccc(N4CCOCC4)cc3)ncc2F)n1C(C)C	140 mL/min/kg

Tested on: not listed separately
Assay: Volume of distribution at steady state in dog
Type: ADME, organism-based, Canis lupus familiaris
Conditions: in vivo, read-out: Vdss

Compound	Vd
Cc1ncc(-c2nc(Nc3ccc(N4CCN(C(=O)CO)CC4)cc3)ncc2F)n1C(C)C	3.5 L/kg
Cc1ncc(-c2ccnc(Nc3ccc(N4CCN(C(=O)CO)CC4)cc3)n2)n1C(C)C	3.4 L/kg
Cc1ncc(-c2nc(Nc3ccc(N4CCOCC4)cc3)ncc2F)n1C(C)C	2.9 L/kg

Tested on: SW-620
Assay: Antitumor activity against human SW620 cells xenografted nude mouse assessed as tumor growth inhibition at 7.5 mg/kg, po once daily for 28 days
Conditions: SW-620, po, 672 h, read-out: INH

Compound	inhibition in vivo at 7.5 mg/kg
Cc1ncc(-c2ccnc(Nc3ccc(N4CCN(C(=O)CO)CC4)cc3)n2)n1C(C)C	80%

Reference: ChEMBL document CHEMBL1155842, “Imidazole piperazines: SAR and development of a potent class of cyclin-dependent kinase inhibitors with a novel binding mode” (Bioorg Med Chem Lett, 2008)
